The NIST ThermoML archive (doi:10.1016/j.tca.2013.03.025)
± gives the expanded uncertainty stated by the source.

Test: refractive index (Na D-line) (dimensionless); xn = mol fraction of the nth substance listed
Conditions: 101 kPa, Liquid, Standard Abbe refractometry

CCCCOC(=O)C(C)O (stereo not given) [butyl 2-hydroxypropanoate] + CC(O)CO
refractive index
Conditions | x1 = 0.0999 | x1 = 0.2 | x1 = 0.3 | x1 = 0.3999 | x1 = 0.4998 | x1 = 0.6 | x1 = 0.6996 | x1 = 0.7999 | x1 = 0.9 | x1 = 1
288.15 K | 1.43214 ± 0.00035 | 1.43049 ± 0.00037 | 1.42918 ± 0.0004 | 1.42809 ± 0.00043 | 1.42709 ± 0.00047 | 1.42629 ± 0.00051 | 1.42548 ± 0.00055 | 1.42482 ± 0.00059 | 1.42412 ± 0.00063 | 1.42379 ± 0.00068
293.15 K | 1.43038 ± 0.00034 | 1.42865 ± 0.00037 | 1.42726 ± 0.0004 | 1.42611 ± 0.00043 | 1.42506 ± 0.00047 | 1.42421 ± 0.00051 | 1.42336 ± 0.00055 | 1.42266 ± 0.00059 | 1.42191 ± 0.00063 | 1.42152 ± 0.00068
298.15 K | 1.42861 ± 0.00034 | 1.42683 ± 0.00037 | 1.42535 ± 0.0004 | 1.42414 ± 0.00043 | 1.42303 ± 0.00047 | 1.42211 ± 0.00051 | 1.42124 ± 0.00055 | 1.42048 ± 0.00059 | 1.4197 ± 0.00063 | 1.41925 ± 0.00068
303.15 K | 1.42682 ± 0.00034 | 1.42494 ± 0.00037 | 1.4234 ± 0.0004 | 1.42214 ± 0.00043 | 1.42099 ± 0.00047 | 1.42002 ± 0.00051 | 1.4191 ± 0.00055 | 1.41831 ± 0.00059 | 1.41749 ± 0.00063 | 1.41697 ± 0.00068
308.15 K | 1.42503 ± 0.00035 | 1.42307 ± 0.00037 | 1.42146 ± 0.0004 | 1.42013 ± 0.00043 | 1.41894 ± 0.00047 | 1.4179 ± 0.00051 | 1.41696 ± 0.00055 | 1.41611 ± 0.00059 | 1.41528 ± 0.00063 | 1.4147 ± 0.00068
313.15 K | 1.42323 ± 0.00035 | 1.42118 ± 0.00037 | 1.4195 ± 0.0004 | 1.41814 ± 0.00043 | 1.41687 ± 0.00047 | 1.41575 ± 0.00051 | 1.41482 ± 0.00055 | 1.41392 ± 0.00059 | 1.41307 ± 0.00063 | 1.41241 ± 0.00068
318.15 K | 1.42143 ± 0.00035 | 1.41927 ± 0.00037 | 1.41751 ± 0.0004 | 1.41605 ± 0.00043 | 1.41479 ± 0.00047 | 1.41365 ± 0.00051 | 1.41265 ± 0.00055 | 1.41169 ± 0.00059 | 1.41083 ± 0.00063 | 1.41006 ± 0.00068
323.15 K | 1.41962 ± 0.00034 | 1.4173 ± 0.00037 | 1.41556 ± 0.0004 | 1.41404 ± 0.00043 | 1.41275 ± 0.00047 | 1.41156 ± 0.00051 | 1.41049 ± 0.00055 | 1.4095 ± 0.00059 | 1.40859 ± 0.00063 | 1.40778 ± 0.00068

CCCCOC(=O)C(C)O (stereo not given) [butyl 2-hydroxypropanoate] + CCCO
refractive index
Conditions | x1 = 0.1 | x1 = 0.2 | x1 = 0.3001 | x1 = 0.3998 | x1 = 0.5 | x1 = 0.5999 | x1 = 0.7001 | x1 = 0.7996 | x1 = 0.8998 | x1 = 1
288.15 K | 1.39449 ± 0.00035 | 1.4003 ± 0.00037 | 1.4052 ± 0.0004 | 1.40922 ± 0.00043 | 1.41285 ± 0.00047 | 1.41543 ± 0.00051 | 1.41816 ± 0.00055 | 1.42021 ± 0.00059 | 1.42209 ± 0.00063 | 1.42379 ± 0.00068
293.15 K | 1.39238 ± 0.00035 | 1.39818 ± 0.00037 | 1.40305 ± 0.0004 | 1.40704 ± 0.00043 | 1.41067 ± 0.00047 | 1.41321 ± 0.00051 | 1.41593 ± 0.00055 | 1.41798 ± 0.00059 | 1.41984 ± 0.00063 | 1.42152 ± 0.00068
298.15 K | 1.39028 ± 0.00035 | 1.39605 ± 0.00037 | 1.40088 ± 0.0004 | 1.40485 ± 0.00043 | 1.40846 ± 0.00047 | 1.41101 ± 0.00051 | 1.41369 ± 0.00055 | 1.41572 ± 0.00059 | 1.41758 ± 0.00063 | 1.41925 ± 0.00068
303.15 K | 1.38813 ± 0.00035 | 1.39389 ± 0.00037 | 1.3987 ± 0.0004 | 1.40265 ± 0.00043 | 1.40623 ± 0.00047 | 1.40877 ± 0.00051 | 1.41144 ± 0.00055 | 1.41346 ± 0.00059 | 1.4153 ± 0.00063 | 1.41697 ± 0.00068
308.15 K | 1.38599 ± 0.00035 | 1.3917 ± 0.00037 | 1.39651 ± 0.0004 | 1.40042 ± 0.00043 | 1.40398 ± 0.00047 | 1.40652 ± 0.00051 | 1.40919 ± 0.00055 | 1.4112 ± 0.00059 | 1.41304 ± 0.00063 | 1.41469 ± 0.00068
313.15 K | 1.38382 ± 0.00035 | 1.38951 ± 0.00037 | 1.39427 ± 0.0004 | 1.3982 ± 0.00043 | 1.4017 ± 0.00047 | 1.40425 ± 0.00051 | 1.40691 ± 0.00055 | 1.40893 ± 0.00059 | 1.41077 ± 0.00063 | 1.4124 ± 0.00068
318.15 K | 1.3816 ± 0.00035 | 1.38726 ± 0.00037 | 1.39198 ± 0.0004 | 1.39591 ± 0.00043 | 1.39938 ± 0.00047 | 1.40195 ± 0.00051 | 1.40455 ± 0.00055 | 1.40658 ± 0.00059 | 1.40842 ± 0.00063 | 1.41005 ± 0.00068
323.15 K | 1.37938 ± 0.00035 | 1.38505 ± 0.00037 | 1.38973 ± 0.0004 | 1.39364 ± 0.00043 | 1.3971 ± 0.00047 | 1.39967 ± 0.00051 | 1.40228 ± 0.00055 | 1.40433 ± 0.00059 | 1.40617 ± 0.00063 | 1.40778 ± 0.00068

CCCCOC(=O)C(C)O (stereo not given) [butyl 2-hydroxypropanoate] + OCCCO
refractive index
Conditions | x1 = 0.0999 | x1 = 0.2 | x1 = 0.3001 | x1 = 0.4 | x1 = 0.4999 | x1 = 0.5999 | x1 = 0.6996 | x1 = 0.8001 | x1 = 0.9 | x1 = 1
288.15 K | 1.43875 ± 0.00039 | 1.43674 ± 0.00042 | 1.43484 ± 0.00045 | 1.43308 ± 0.00048 | 1.43138 ± 0.00051 | 1.42969 ± 0.00054 | 1.42809 ± 0.00057 | 1.42652 ± 0.00061 | 1.4251 ± 0.00064 | 1.42379 ± 0.00068
293.15 K | 1.43724 ± 0.00039 | 1.4351 ± 0.00042 | 1.43311 ± 0.00045 | 1.43126 ± 0.00048 | 1.42947 ± 0.00051 | 1.4277 ± 0.00054 | 1.42602 ± 0.00057 | 1.42438 ± 0.00061 | 1.4229 ± 0.00064 | 1.42152 ± 0.00068
298.15 K | 1.43568 ± 0.00039 | 1.43346 ± 0.00042 | 1.43136 ± 0.00045 | 1.42942 ± 0.00048 | 1.42754 ± 0.00051 | 1.42569 ± 0.00054 | 1.42396 ± 0.00057 | 1.42225 ± 0.00061 | 1.4207 ± 0.00064 | 1.41925 ± 0.00068
303.15 K | 1.43417 ± 0.00039 | 1.4318 ± 0.00042 | 1.4296 ± 0.00045 | 1.42758 ± 0.00048 | 1.42563 ± 0.00051 | 1.42369 ± 0.00054 | 1.42187 ± 0.00057 | 1.4201 ± 0.00061 | 1.4185 ± 0.00064 | 1.41697 ± 0.00068
308.15 K | 1.43265 ± 0.00039 | 1.43015 ± 0.00042 | 1.42783 ± 0.00045 | 1.42571 ± 0.00048 | 1.42367 ± 0.00051 | 1.42167 ± 0.00054 | 1.4198 ± 0.00057 | 1.41796 ± 0.00061 | 1.41629 ± 0.00064 | 1.4147 ± 0.00068
313.15 K | 1.43112 ± 0.00039 | 1.42848 ± 0.00042 | 1.42606 ± 0.00045 | 1.42385 ± 0.00048 | 1.42173 ± 0.00051 | 1.41964 ± 0.00054 | 1.4177 ± 0.00057 | 1.41579 ± 0.00061 | 1.41408 ± 0.00064 | 1.41241 ± 0.00068
318.15 K | 1.4296 ± 0.00039 | 1.42681 ± 0.00042 | 1.42426 ± 0.00045 | 1.42197 ± 0.00048 | 1.41977 ± 0.00051 | 1.41759 ± 0.00054 | 1.41556 ± 0.00057 | 1.41358 ± 0.00061 | 1.41183 ± 0.00064 | 1.41006 ± 0.00068
323.15 K | 1.42813 ± 0.00039 | 1.42537 ± 0.00042 | 1.42267 ± 0.00045 | 1.42009 ± 0.00048 | 1.41772 ± 0.00051 | 1.41555 ± 0.00054 | 1.41347 ± 0.00057 | 1.41153 ± 0.00061 | 1.40962 ± 0.00064 | 1.40778 ± 0.00068
